The test system of one data set is HT-29. The experiment in a line: Antiproliferative activity against human HT-29 cells assessed as cell growth inhibition incubated for 48 hrs by MTT assay. The class given is functional, cell-based. The note with it: HT-29, 48 h. In general terms: Tetrazolium assays rely on reduction of a dye to a coloured formazan, in cell work by metabolically active cells.
Data set [1] deals with T1, Tubulin (Homo sapiens) (UniProt P68371+Q9H4B7+P0DPH7+P68366+Q13509+Q71U36+P04350+Q3ZCM7+P07437+P68363+Q9BQE3+Q6PEY2+Q13885+Q9BVA1+Q9BUF5). The data set can be described thus: Inhibition of tubulin polymerization (unknown origin) at 10 uM measured for 20 mins in presence of GTP by spectrophotometry analysis relative to control. Type of data set: protein-complex assay.
The subject of a further data set is MDA-MB-231. The experiment in a line: Antiproliferative activity against human MDA-MB-231 cells assessed as cell growth inhibition incubated for 48 hrs by MTT assay. The class given is functional, cell-based. The conditions noted are these: MDA-MB-231, 48 h.
In the next data set the test system is A549. The experiment in a line: Antiproliferative activity against human A549 cells assessed as cell growth inhibition incubated for 48 hrs by MTT assay. The note with it: A549, 48 h. Type of data set: functional, cell-based.
The next data set deals with HeLa. The experiment in a line: Antiproliferative activity against human HeLa cells assessed as cell growth inhibition incubated for 48 hrs by MTT assay. The class given is functional, cell-based.
Data set [2] can be described thus: Antiproliferative activity against human HEK293 cells assessed as cell growth inhibition incubated for 48 hrs by MTT assay. The class given is toxicity, cell-based.
For data set [3], the target named is T1, Tubulin (Homo sapiens). The experiment in a line: Inhibition of tubulin polymerization (unknown origin) at 10 uM measured for 20 mins in presence of GTP by spectrophotometry analysis. Type of data set: protein-complex assay.

Activity calls are given as the source filed them. The rule behind the calls is not given here.

Usually IC50 stands for the point on the concentration scale where inhibition reaches its midpoint. Broadly, the inhibition is the change of the read-out against control, counted positive when it falls.

Turning to `COc1ccc(C2=Nn3c(Cc4cc(OC)c(OC)c(OC)c4)nnc3SC2)cc1[N+](=O)[O-]`, in the data set on HT-29, the IC50 amounted to 49.2 µM.

As to `COc1cc(Cc2nnc3n2N=C(c2ccccc2)CS3)cc(OC)c1OC`, the IC50 with HT-29 was more than 50 µM.

`COc1cc(OCc2nnc3n2N=C(c2ccc(C(F)(F)F)cc2)CS3)cc(OC)c1OC`: the IC50 with HT-29 is more than 50 µM.

`COc1cc(OCc2nnc3n2N=C(c2ccc(N(C)C)cc2)CS3)cc(OC)c1OC`: at Tubulin (Homo sapiens) [1], the inhibition turned out to be 12%. Moreover, the IC50 in the data set on MDA-MB-231 was 9.73 µM; in the data set with HT-29, 0.41 µM; with A549, more than 50 µM; in the data set with HeLa, 2.2 µM. For the same compound, the IC50 at 48 h in data set [2] was more than 100 µM.

As for `COc1ccc(C2=Nn3c(Cc4cc(OC)c(OC)c(OC)c4)nnc3SC2)cc1`, the IC50 in the data set on HT-29 is 42.8 µM.

On to `COc1ccc(C2=Nn3c(COc4cc(OC)c(OC)c(OC)c4)nnc3SC2)cc1OC(C)=O`, for which, in the data set with HT-29, the IC50 is 26.2 µM.

`COc1ccc(C2=Nn3c(COc4cc(OC)c(OC)c(OC)c4)nnc3SC2)cc1O`: in the data set on HT-29, the IC50 stood at 36.4 µM.

As to `COc1cc(Cc2nnc3n2N=C(c2ccc(F)cc2)CS3)cc(OC)c1OC`, in the data set with HT-29, the IC50 was more than 50 µM.

As for `COc1cc(Cc2nnc3n2N=C(c2ccc(Br)cc2)CS3)cc(OC)c1OC`, the IC50 in the data set on HT-29 is 43.6 µM.

Consider `CC(=O)O[C@H]1C(=O)[C@@]2(C)[C@H]([C@H](OC(=O)c3ccccc3)[C@]3(O)C[C@H](OC(=O)[C@H](O)[C@@H](NC(=O)c4ccccc4)c4ccccc4)C(C)=C1C3(C)C)[C@]1(OC(C)=O)CO[C@@H]1C[C@@H]2O`, for which, at Tubulin (Homo sapiens) [3], the inhibition entry is “inactive”.

For the compound `COc1cc(Cc2nnc3n2N=C(c2ccc(-c4ccccc4)cc2)CS3)cc(OC)c1OC`, in the data set on HT-29, the IC50 is more than 50 µM.

As for `COc1cc(OCc2nnc3n2N=C(c2ccc(C)cc2)CS3)cc(OC)c1OC`, at Tubulin (Homo sapiens) [1], the inhibition turned out to be 11%. Further, the IC50 was 12.8 µM in the data set on MDA-MB-231, 0.46 µM in the data set on HT-29, 30.6 µM in the data set on A549 and more than 50 µM with HeLa. Further, in data set [2], the IC50 at 48 h was more than 100 µM.

For `COc1cc(Cc2nnc3n2N=C(c2ccccc2F)CS3)cc(OC)c1OC`, the 50% inhibitory concentration (IC50) with HT-29 was determined as 44.6 µM.

In the case of `COc1cccc(C2=Nn3c(Cc4cc(OC)c(OC)c(OC)c4)nnc3SC2)c1`, the IC50 with HT-29 turned out to be 32 µM.

In the case of `COc1cc(Cc2nnc3n2N=C(c2ccc([N+](=O)[O-])cc2)CS3)cc(OC)c1OC`, the IC50 with HT-29 is more than 50 µM.

As to `COc1ccc(C2=Nn3c(Cc4cc(OC)c(OC)c(OC)c4)nnc3SC2)cc1N`, in the data set with HT-29, the IC50 is more than 50 µM.

In the case of `COc1ccc(C2=Nn3c(COc4cc(OC)c(OC)c(OC)c4)nnc3SC2)cc1OC`, the IC50 with HT-29 is more than 50 µM.

As for `COc1ccc(C2=Nn3c(COc4cc(OC)c(OC)c(OC)c4)nnc3SC2)cc1[N+](=O)[O-]`, in the data set with HT-29, the half-inhibitory concentration (IC50) is more than 50 µM.

As to `COc1ccc(Cc2nnc(SCC(=O)c3ccc(C)cc3)n2N)c(OC)c1OC`, the half-inhibitory concentration (IC50) in the data set with MDA-MB-231 is more than 50 µM; in the data set with HT-29, 0.62 µM; in the data set with A549, 11.8 µM; with HeLa, 9.02 µM. For the same compound, in data set [2], the IC50 at 48 h was more than 100 µM.

Take `COc1ccc(C2=Nn3c(Cc4cc(OC)c(OC)c(OC)c4)nnc3SC2)cc1O`: in the data set on HT-29, the concentration for half-maximal inhibition (IC50) was determined as 9.69 µM.

On to `COc1cc(OCc2nnc3n2N=C(c2ccc(N)cc2)CS3)cc(OC)c1OC`, for which the IC50 in the data set on HT-29 is more than 50 µM.

With `COc1cc(Cc2nnc3n2N=C(c2ccc(N(C)C)cc2)CS3)cc(OC)c1OC`, the IC50 in the data set on HT-29 is 35.2 µM.

Consider `COc1ccc(/C=C\c2cc(OC)c(OC)c(OC)c2)cc1O` [COMBRETASTATIN A4], for which the half-inhibitory concentration (IC50) was found to be 0.077 µM in the data set on MDA-MB-231, 1.18 µM in the data set on HT-29 and 0.043 µM in the data set on HeLa.

`COc1ccc(C2=Nn3c(COc4cc(OC)c(OC)c(OC)c4)nnc3SC2)cc1F`: the IC50 with HT-29 is more than 50 µM.

As for `COc1cc(Cc2nnc3n2N=C(c2ccc(Cl)cc2)CS3)cc(OC)c1OC`, the inhibition at Tubulin (Homo sapiens) [1] was 30%. Moreover, the IC50 in the data set on MDA-MB-231 is 4.63 µM; in the data set with HT-29 it was 1.02 µM; in the data set on A549, 5.77 µM; in the data set on HeLa, 1.33 µM. The IC50 at 48 h in data set [2] was more than 100 µM.

As to `COc1cc(OCc2nnc3n2N=C(c2ccc(Cl)c(Cl)c2)CS3)cc(OC)c1OC`, the IC50 with HT-29 came to 48.1 µM.

As to `COc1cc(Cc2nnc3n2N=C(c2cccs2)CS3)cc(OC)c1OC`, in the data set on HT-29, the IC50 was more than 50 µM.

As to `COc1cc(Cc2nnc3n2N=C(c2ccc(C(F)(F)F)cc2)CS3)cc(OC)c1OC`, the IC50 in the data set with HT-29 was found to be 5.03 µM.

In the case of `COc1cc(OCc2nnc3n2N=C(c2ccc(SC)cc2)CS3)cc(OC)c1OC`, in the data set on HT-29, the IC50 was more than 50 µM.

In the case of `COc1ccc(C2=Nn3c(COc4cc(OC)c(OC)c(OC)c4)nnc3SC2)cc1N`, the IC50 in the data set with HT-29 came out at 4.93 µM.
